# Results published in ChEMBL document CHEMBL3046320, “Synthesis and evaluation of antioxidant activity of 2-styrylchromones” (Med Chem Res, 2013).
# System: Radical scavenging activity
# Assay: Antioxidant activity assessed as DPPH radical scavenging activity by DPPH method
# Format: functional
# Parameters: concentration or dose not given beside the values
row,Structure (SMILES),Activity [%]
1,COc1ccc(/C=C/c2cc(=O)c3c(O)cccc3o2)cc1,71.1
2,O=c1cc(/C=C/c2ccccc2)oc2cc(I)c(Cl)cc12,67.2
3,O=c1cc(/C=C/c2ccccc2)oc2ccccc12,64.4
4,C/C(=C\c1cc(=O)c2ccccc2o1)c1ccccc1,65.8
5,COc1ccc(/C=C/c2cc(=O)c3cc(Cl)c(I)cc3o2)cc1,69.1
6,O=c1cc(/C=C/c2ccccc2)oc2cc(I)ccc12,65
7,COc1ccc(/C=C/c2cc(=O)c3cc(Br)ccc3o2)cc1,60.9
8,C/C(=C\c1cc(=O)c2cc(Cl)c(I)cc2o1)c1ccccc1,71.4
9,COc1ccc(/C=C/c2cc(=O)c3ccc(I)cc3o2)cc1,66.8
10,C/C(=C\c1cc(=O)c2ccc(I)cc2o1)c1ccccc1,69.6
